Our source for the absorption maximum values is the Deep4Chem optical property database.

Structures are written as SMILES.

This series in a line: solvent given as SMILES.

Where the note is “in O”, `N#Cc1cc2ccc([O-])cc2oc1=O` displayed an absorption maximum of 408 nm.
In turn, `c1ccc(-n2nc(-c3ccc(-c4ccc5c(c4)C(c4ccccc4)(c4ccccc4)c4ccccc4-5)cc3)nc2-c2ccccn2)cc1` came in with an absorption maximum (in ClCCl) of 323 nm.
Under “in O”, `COc1cc(N2CCOCCOCCN(c3cc(OC)c(NC(=O)c4ccc(-c5c6cc(Cl)c(=O)cc-6oc6cc([O-])c(Cl)cc56)c(C(=O)[O-])c4)cc3OC)CCOCC2)c(OC)cc1NC(=O)c1ccc(-c2c3cc(Cl)c(=O)cc-3oc3cc([O-])c(Cl)cc23)c(C(=O)[O-])c1` yielded an absorption maximum of 507 nm.
Turning to `c1ccc(-c2c3ccccc3c(-c3ccccc3)c3cc4ccccc4cc23)cc1`, under “in ClCCl”, the absorption maximum was found to be 493 nm.
On to `COc1c2ccccc2c(OC)c2c1c1ccc(C)cc1n2C`, for which the absorption maximum runs as follows: (in C1CCCCC1) 402 nm; (in CC#N) 404 nm; (in CO) 401 nm; (in ClCCl) 405 nm.
`CCOc1ccc(/C=C/c2nc(N3CCOCC3)c3c([n+]2[O-])CCCC3)cc1` registered an absorption maximum (in ClCCl) of 384 nm.
For the compound `Cc1c(COC(=O)Cc2ccccc2)n2c(OCC(=O)Cc3ccccc3)c(C)c(=O)n2c1=O`, the absorption maximum (in CCO) was found to be 379 nm.
As for `CC(=O)C1=C(O)CC2Oc3c(C(C)=O)c(O)c(C)c(O)c3C2(C)C1=O` (configuration not stated), for the setting “in ClC(Cl)Cl”, the absorption maximum is listed as 340 nm.
Take `CCCCCc1c(C(=O)c2ccc3c4c(cccc24)-c2cccc4c2C3CC=C4)c2ccc3cccc4c5cccc6ccc1c(c65)c2c34` (configuration not stated): the absorption maximum (in ClCCl) was 470 nm.
`CN1CCN(c2cccc(/C=C/c3ncc(-c4ccc(OCc5ccccc5)c(OCc5ccccc5)c4)o3)c2)CC1` had an absorption maximum (in ClCCl) of 354 nm.
As for `CCCCCCN(CCCCCC)c1ccc(C#Cc2c(F)c(F)c(F)c(F)c2F)cc1`, the absorption maximum reads like this: (in CO) 357 nm; (in ClCCl) 363 nm.
Consider `CCN1CCN(c2ccc(/N=N/c3cc([N+](=O)[O-])cc([N+](=O)[O-])c3)cc2)CC1`, for which, under “in CCOC(C)=O”, the absorption maximum was determined as 454 nm.
For `CC[n+]1c(-c2ccccc2)c2cc(N)ccc2c2ccc(NC(N)=[NH2+])cc21`, the absorption maximum (in O) is given as 444 nm.
Compound `O=S(=O)([O-])CCCCN1C=C/C(=C/C=C/C=C/c2cc[n+](CCCCS(=O)(=O)[O-])c3ccccc23)c2ccccc21` returned an absorption maximum (in CO) of 815 nm.
With `CCCCCCCCOc1ccc(-c2c3c4n(c(-c5ccc(OCCCCCCCC)cc5)c3c3n2[B-](F)(F)[n+]2ccccc2N=3)[B-](F)(F)[n+]2ccccc2N=4)cc1`, the absorption maximum (in ClC(Cl)Cl) was determined as 638 nm.
Regarding `COc1ccc2c(c1)CCc1c-2nc(N)c(C#N)c1-c1ccc(Br)cc1`, the absorption maximum reads like this: (in C1CCOC1) 362 nm; (in C1COCCO1) 366 nm; (in CC#N) 364 nm; (in CCCCCC) 360 nm; (in CCO) 370 nm; (in CN(C)C=O) 375 nm. In addition, the absorption maximum was 371 nm (in CO), 379 nm (in CS(C)=O), 368 nm (in ClC(Cl)Cl) and 365 nm (in ClCCl).
Take `CN(C)c1ccc(C2=Cc3c4ccccc4c4ccccc4[n+]3[B-](F)(F)O2)cc1`: the absorption maximum runs as follows: (in C1CCOC1) 478 nm; (in C1COCCO1) 477 nm; (in CC1CCCCC1) 474 nm; (in CC#N) 476 nm; (in CCOC(C)=O) 475 nm; (in CCOCC) 472 nm. Moreover, the absorption maximum was determined as 484 nm (in CN(C)C=O), 475 nm (in CO), 477 nm (in COC(C)=O) and 483 nm (in ClC(Cl)Cl).
As for `N#Cc1cc(-c2ccccc2)c(N2c3ccccc3Oc3ccccc32)c(-c2ccccc2)c1`, for the setting “in C1CCCCC1”, the absorption maximum worked out at 405 nm.
`COc1ccc(-n2nc(C#N)c(N3CCOCC3)n2)cc1` showed an absorption maximum (in CC#N) of 324 nm.
Compound `COC(=O)c1nc(Br)c(-c2ccccc2)o1` gave an absorption maximum (in C1CCCCC1) of 307 nm.
Consider `Nc1nc2ccc(F)cc2[n+]([O-])n1`, for which the absorption maximum by setting is: (in CC#N) 415 nm; (in O) 422 nm.
For `CCC1=C(C)C2=C(c3c4ccccc4c(-c4ccccc4)c4ccccc34)c3c(C)c(CC)c(C)n3[B-](F)(F)[N+]2=C1C`, the absorption maximum (in CC#N) amounted to 528 nm; the absorption maximum (in CCCCCC) worked out at 531 nm; the absorption maximum (in CCO) came to 529 nm; the absorption maximum (in CN(C)C=O) worked out at 530 nm; the absorption maximum (in Cc1ccccc1) was 534 nm; the absorption maximum (in ClCCl) came to 532 nm.
Consider `CC(C)(C)c1ccc2c(c1)c1cc(C(C)(C)C)ccc1n2-c1cc(C(=O)c2ccccn2)cc(-n2c3ccc(C(C)(C)C)cc3c3cc(C(C)(C)C)ccc32)c1`, for which, for the setting “in Cc1ccccc1”, the absorption maximum was 394 nm.
In the case of `CCc1c(C)c2n(c1C)[B-](F)(F)[N+]1=C(NCc3ccc(OC)cc3)C=CC1=C2C`, the absorption maximum was 524 nm (in CC#N); 534 nm (in CCCCCC); 527 nm (in CCOC(C)=O); 525 nm (in CO); 531 nm (in ClCCl).
Turning to `CC1(C)CC(NCc2ccc3ccc4cccc5ccc2c3c45)CC(C)(C)N1[O]`, the absorption maximum (in C1CCCCC1) was determined as 342 nm, the absorption maximum (in CC#N) is given as 341 nm, the absorption maximum (in CO) is given as 340 nm and the absorption maximum (in ClC(Cl)Cl) is 344 nm.
`CCCCCCc1ccsc1-c1ccc2c(c1)C1=[N+]3C2=Cc2c4ccc(-c5sccc5CCCCCC)cc4c4n2[B-]3(Oc2ccccc21)Oc1ccccc1-4` (configuration not stated) returned an absorption maximum (in C1CCOC1) of 733 nm.
Under “in CO”, `CC1(C)C(/C=C/C2=C(Oc3ccc(CCN=C=S)cc3)C(=C/C=C3/N(CCCS(=O)(=O)[O-])c4ccccc4C3(C)C)/CCC2)=[N+](CCCS(=O)(=O)[O-])c2ccccc21` registered an absorption maximum of 765 nm.
Compound `COC1(OC)C2(Cl)c3nc4cc(-c5cccs5)ccc4nc3C1(Cl)C1C[C@H]3[C@@H](CC12)C1(Cl)c2nc4ccc(-c5cccs5)cc4nc2C3(Cl)C1(OC)OC` (some centres not stated) gave an absorption maximum (in CC#N) of 366 nm; an absorption maximum (in CCCCCC) of 358 nm; an absorption maximum (in CCOC(C)=O) of 362 nm; an absorption maximum (in CO) of 368 nm; an absorption maximum (in Cc1ccccc1) of 362 nm; an absorption maximum (in ClC(Cl)Cl) of 366 nm. The absorption maximum (in ClCCl) was found to be 367 nm.
With `CCCCCCCCCCC1(CCCCCCCCCC)c2cc(-c3nc4ccccc4s3)ccc2-c2ccc(N3C(=O)c4ccc5c6ccc7c8c(ccc(c9ccc(c4c59)C3=O)c86)C(=O)N(c3ccc4c(c3)C(CCCCCCCCCC)(CCCCCCCCCC)c3cc(-c5nc6ccccc6s5)ccc3-4)C7=O)cc21`, the absorption maximum (in ClCCl) came to 528 nm.
For the setting “in ClC(Cl)Cl”, `CN(C)c1ccc(-c2ccc(-c3cc(-c4ccccc4)c(-c4ccccc4)c(-c4ccccc4)c3-c3ccccc3)nc2)cc1` showed an absorption maximum of 332 nm.
`C[C@@]12SC(Cl)=CC1=c1nc(-c3ccc(Cl)cc3)[nH]c1=C1C=C(Cl)S[C@]12C` displayed an absorption maximum (in CC#N) of 327 nm.
For `Oc1cc(-c2ccco2)ccc1-c1nc2ccccc2s1`, the absorption maximum is 361 nm (in ClCCl) and 354 nm (in O).
Regarding `COc1ccccc1C1=[N+]2C(=C(c3ccccc3)c3c4ccccc4c(-c4ccccc4OC)n3[B-]2(F)F)c2ccccc21`, the absorption maximum (in ClCCl) amounted to 617 nm.
Still for that read-out and setting: next, `COc1ccc(-c2c3ccccc3c(-c3ccc(OC)cc3)c3cc4ccccc4cc23)cc1`: 495 nm; `O=C1c2ccccc2-c2nc3ccccc3n21`: 340 nm.
